One experiment concerns foxtail, giant. As to the kind of experiment: Test A preemergence. The class given is in vivo, Setaria faberi. The following applies: Setaria faberi, pre-emergence, 240 h, read-out: Plant response rating, Foxtail, Giant. A digest of the protocol: (§1)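 Weeds and crops in loam–sand blend were sprayed preemergence onto soil or postemergence at 2–10 cm (one- to two-leaf stage). Test chemicals were in a non-phytotoxic solvent with surfactant. After 10 days in the greenhouse, injury was rated visually against untreated controls on a 0 (no effect) to 100 (complete control) scale.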

The test system of the next experiment is goosegrass. Kind of experiment: Test A preemergence. The class given is in vivo, Eleusine indica. To be noted: Eleusine indica, pre-emergence, 240 h, read-out: Plant response rating, Goosegrass. A digest of the protocol: as §1
Experiment [1] has as its system pigweed, palmer. Kind of experiment: Test A preemergence. The class given is in vivo, Amaranthus palmeri. The following applies: Amaranthus palmeri, pre-emergence, 240 h, read-out: Plant response rating, Pigweed, Palmer. A digest of the protocol:
as §1

In experiment [2] the test system is ryegrass, Italian. Kind of experiment: Test A preemergence. The class given is in vivo, Lolium multiflorum. The following applies: Lolium multiflorum, pre-emergence, 240 h, read-out: Plant response rating, Ryegrass, Italian. A digest of the protocol:
as §1

In the next experiment the test system is corn. As to the kind of experiment: Test A postemergence. The class given is in vivo, Zea mays. To be noted: Zea mays, post-emergence, 240 h, postemergence, 10 days, visual injury, 0 to 100 scale (0 no effect, 100 complete control). The procedure, abridged:
as §1

For the next experiment, the system named is oat, wild. Kind of experiment: Test A postemergence. The class given is in vivo, Avena fatua. To be noted: Avena fatua, post-emergence, 240 h, 500 g ai/ha, postemergence, 10 days, visual injury, 0 to 100 scale (0 no effect, 100 complete control); read-out: Plant response rating, Oat, Wild. The procedure, abridged:
as §1

In experiment [3] the test system is pigweed, palmer. As to the kind of experiment: Test A postemergence. The class given is in vivo, Amaranthus palmeri. The following applies: Amaranthus palmeri, post-emergence, 240 h, 500 g ai/ha, postemergence, 10 days, visual injury, 0 to 100 scale (0 no effect, 100 complete control); read-out: Plant response rating, Pigweed, Palmer. A digest of the protocol: as §1

Experiment [4] has as its system ryegrass, Italian. Kind of experiment: Test A postemergence. The class given is in vivo, Lolium multiflorum. The following applies: Lolium multiflorum, post-emergence, 240 h, 500 g ai/ha, postemergence, 10 days, visual injury, 0 to 100 scale (0 no effect, 100 complete control); read-out: Plant response rating, Ryegrass, Italian. The procedure, abridged:
as §1

The next experiment relates to soybean. Kind of experiment: Test A postemergence. The class given is in vivo, Glycine max. To be noted: Glycine max, post-emergence, 240 h, 500 g ai/ha, postemergence, 10 days, visual injury, 0 to 100 scale (0 no effect, 100 complete control); read-out: Plant response rating, Soybean. The procedure, abridged:
as §1

The next experiment relates to galium. Kind of experiment: Test A postemergence. The class given is in vivo, Galium aparine. To be noted: Galium, post-emergence, 240 h, postemergence, 10 days, visual injury, 0 to 100 scale (0 no effect, 100 complete control), read-out: Plant response rating, Galium. The procedure, abridged:
as §1

The test system of the next experiment is horseweed. As to the kind of experiment: Test A postemergence. The class given is in vivo, Erigeron canadensis. The following applies: Erigeron canadensis, post-emergence, 240 h, postemergence, 10 days, visual injury, 0 to 100 scale (0 no effect, 100 complete control), read-out: Plant response rating, Horseweed. The procedure, abridged: as §1
The subject of the next experiment is barnyardgrass. Kind of experiment: Test B flooded paddy test. The class given is in vivo, Echinochloa crus-galli. The following applies: Echinochloa crus-galli, 312 h, 250 g ai/ha, Flood, 13 days, 0 to 100 scale (0 no effect, 100 complete control); read-out: Plant response rating, Barnyardgrass. The procedure, abridged: (§2)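 Application into standing water (3 cm above soil) at the two-leaf stage; flood depth held constant. Evaluation: day 13, visual comparison with controls, 0 = no injury, 100 = complete control.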

A further experiment relates to sedge, umbrella. As to the kind of experiment: Test B flooded paddy test. The class given is in vivo, Cyperus difformis. To be noted: Cyperus difformis, 312 h; 250 g ai/ha, Flood, 13 days, 0 to 100 scale (0 no effect, 100 complete control); read-out: Plant response rating, Sedge, Umbrella. A digest of the protocol:
as §2

Where [5] appears, read: 125 g ai/ha, visual injury after 10 days, 0 to 100 scale, 0 is no effect, 100 is complete control.
Where [6] appears, read: 500 g ai/ha, 0 to 100 scale (0 no effect, 100 complete control), 10 days.

The structures appear in SMILES notation.

For `Cc1ccc(-n2cnc(C(C)(C)C)n2)cc1C(=O)N1C[C@H](C)Oc2c(Cl)cccc21` [Compound 76, [(2S)-8-Chloro-2,3-dihydro-2-methyl-4H-1,4-benzoxazin-4-yl][5-[3-(1,1-dimethylethyl)-1H-1,2,4-triazol-1-yl]-2-methylphenyl]methanone], the pest or weed control at 125 g/ha was determined as 90% in the experiment on foxtail, giant (setting [5]); 100% in the experiment with goosegrass (setting [5]); 100% in the experiment on pigweed, palmer [1] (setting [5]); 100% with ryegrass, Italian [2] (setting [5]); 100% in the experiment on galium (125 g ai/ha); 70% in the experiment with horseweed (125 g ai/ha). The pest or weed control at 500 g/ha in the experiment with foxtail, giant (setting [6]) amounted to 100%; in the experiment with goosegrass (setting [6]), 100%; in the experiment with pigweed, palmer [1] (setting [6]), 100%; in the experiment on ryegrass, Italian [2] (setting [6]), 100%; in the experiment on oat, wild it was 90%; in the experiment on pigweed, palmer [3], 100%. For the same molecule, the pest or weed control at 500 g/ha in the experiment with ryegrass, Italian [4] came to 80%; with galium (500 g ai/ha) it was 100%; in the experiment with horseweed (500 g ai/ha), 80%. The Corn plant response rating (crop injury, 0 = no effect, 100 = complete kill) at 125 g/ha in the experiment on corn (125 g ai/ha) came to 60%. Besides, the Corn plant response rating (crop injury, 0 = no effect, 100 = complete kill) at 500 g/ha in the experiment on corn (500 g ai/ha) worked out at 60%. Further, the plant injury at 500 g/ha in the experiment with soybean amounted to 100%. Moreover, the pest or weed control at 250 g/ha with barnyardgrass worked out at 25%; with sedge, umbrella, 98%.

Source of the values: patent publication US20260262643A1, “HERBICIDAL BENZOXAZINES” (FMC CORPORATION, priority 2022, published 2026).
